# Key:
# [1] = test system: 2 year old Eucalyptus dunni trees; assay: Field trial, effect of psyllid control on growth of E. dunni (tree height, diameter, wood volume); assay type: in vivo; details: for Mean increase in tree height: 0-303 DAT
# Excerpt: (§1) Near Casino, northern New South Wales, Australia in the 2006-2007 season, chlothianidin as a suspension (200 g/L) in water at 0.5, 1.0 and 1.5 grams of active ingredient per tree (gai/tree) was applied to 2 year old Eucalyptus dunni trees for the control of psyllids Creiis lituratus during winter and chrysomelid leaf beetles during summer.
# (§2) A single application below the soil surface was made by coulter 20-40 cm from the base of the stem of the trees and to a depth of 10-15 cm in 128 L of water per hectare. Psyllid lerp counts were taken 141 and 303 DAT (days after treatment). Tree height was measured at treatment and then at 303 DAT. Diameter at breast height was measured at 303 DAT.
# The difference in volume between the untreated and the 1 gai/tree treatment can be calculated over 303 days
# [2] = test system: psyllids Creiis lituratus; assay: Field trial, subsurface application for the control of psyllids (lerp counts) on Eucalyptus dunni; assay type: in vivo; details: for Mean lerp count per 5 terminal leaflets: subsurface application
# Excerpt: as §1, §2
compound,measurement,setting,value
"CN/C(=N\[N+](=O)[O-])NCc1cnc(Cl)s1 [Clothianidin, clothianidin]",Mean increase in tree height,[1]; 0.5 gai/tree,198 ab cm
same,"DBM (diameter at breast height, 1.3 m above ground level)","[1]; 0.5 gai/tree, 303 DAT",5.44 cm
same,Mean tree height,"[1]; 0.5 gai/tree, 303 DAT",500 bc cm
same,Mean increase in tree height,[1]; 1 gai/tree,228 a cm
same,"DBM (diameter at breast height, 1.3 m above ground level)","[1]; 1 gai/tree, 303 DAT",5.91 cm
same,Mean tree height,"[1]; 1 gai/tree, 303 DAT",526 b cm
same,Increase in wood volume,"[1]; 1 gai/tree, 303 DAT, versus untreated",8.5 m^3/ha
same,Mean tree diameter,"[1]; 1 gai/tree, over 303 days",5.91 cm
same,Mean tree height,"[1]; 1 gai/tree, over 303 days",5.26 m
same,Mean wood vol/ha,"[1]; 1 gai/tree, over 303 days",22.2 m^3
same,Mean increase in tree height,[1]; 1.5 gai/tree,229 a cm
same,"DBM (diameter at breast height, 1.3 m above ground level)","[1]; 1.5 gai/tree, 303 DAT",6.67 cm
same,Mean tree height,"[1]; 1.5 gai/tree, 303 DAT",594 a cm
same,growth of E. dunni,"[1]; sub-surface application at 0.5 to 1.5 gai/tree, high psyllid pressure, up to 303 DAT",improved
same,Mean lerp count per 5 terminal leaflets,"[2]; 0.5 gai/tree, Mar. 19, 2007 (303 DAT)",3.50 B
same,Mean lerp count per 5 terminal leaflets,"[2]; 0.5 gai/tree, Oct. 7, 2006 (141 DAT)",2.33 b
same,Mean lerp count per 5 terminal leaflets,"[2]; 1 gai/tree, Mar. 19, 2007 (303 DAT)",2.06 B
same,Mean lerp count per 5 terminal leaflets,"[2]; 1 gai/tree, Oct. 7, 2006 (141 DAT)",0.71 c
same,Mean lerp count per 5 terminal leaflets,"[2]; 1.5 gai/tree, Mar. 19, 2007 (303 DAT)",0.69 B
same,Mean lerp count per 5 terminal leaflets,"[2]; 1.5 gai/tree, Oct. 7, 2006 (141 DAT)",0.58 c
same,psyllid lerp counts,"[2]; sub-surface application at 0.5 to 1.5 gai/tree, up to 303 DAT",significantly reduced
